Measured values: patent publication US4749690A, “Treatment of allergy with thymopentin” (Ortho Pharmaceutical Corporation, priority 1986, dated 1988)
“Also recorded” adds a separate entry of the source. No end group written: not given here.

Legend:
T lymphocytes = details: background art; cited from earlier work
[1] = tested on: patients with Ragweed Hay Fever; assay: double-blind placebo-controlled phase II study, patient-diary hay fever symptom counts; assay type: in vivo, human; details: for Average # Weekly Symptoms, Severe / Average # Weekly Symptoms, Total / Average # Weekly Symptoms, Mild: average per subject over weeks 3-12; for hay fever symptoms compared with placebo group (in words): 12 weeks
Description: Each group was given a subcutaneous injection three times a week and an intravenous injection once a week; in the first group the first injection was thymopentin while the second was placebo, in the second group the first injection was placebo and the second thymopentin, while in the third group both injections were placebo. […] The application of the present invention is illustrated by the clinical study on thymopentin in the treatment of patients with Ragweed Hay Fever given in the Example which follows. Thirty (30) patients with a proven history of ragweed hay fever, who fulfill all of the inclusion criteria and none of the exclusion criteria, were enrolled in this single site study. This invention was a placebo-controlled phase II safety and efficacy study of Thymopentin (TP5) in the treatment of patients with Ragwood Hay Fever. Thirty (30) patients were assigned to either TP5 or placebo according to a double blind randomization schedule. Ten (10) patients were assigned to each of three (3) treatment groups described as follows. Group 1 received 1.0 ml TP5 (50 mg/ml) subcutaneously three (3) times per week and 5.0 ml placebo intravenously once weekly for twelve (12) weeks. Group 2 received 1.0 ml placebo subcutaneously three (3) times per week and 5.0 ml TP5 (20 mg/ml) intravenously once weekly for twelve (12) weeks. Group 3 received 1.0 ml placebo subcutaneously three (3) times per week and 5.0 ml placebo intravenously once weekly for twelve (12) weeks. 1. Each patient received subcutaneous injections three (3) times per week and one intravenous injection per week for twelve weeks, according to the group randomization schedule described above. 2. All patients received a diary in which allergy medication (chlortrimeton) taken during the course of the study and symptoms related to Ragweed Hay Fever were documented. Patients received specific instructions pertaining to continued maintenance of their symptom and medication diaries. The diaries were reviewed weekly and returned upon termination of treatment. Each of the thirty subjects recorded twice daily the occurrence of five symptoms using the mutually exclusive scores "none", "mild", and "severe". The efficacy of treatment was determined by comparison of the average weekly number of mild and severe symptoms per subject. In one analysis, a score was created for each subject based upon the number of times certain symptoms were noted over the ten-week period of study. Each occurrence of a mild or severe symptom was scored as "1" and the average weekly score over the ten weeks for which data were collected was computed for each subject. Pair-wise comparisons were made among the three groups using a standard t-test. […] A more detailed analysis used a repeated measures analysis of variance, in which the total weekly symptoms were compared on a week-by-week basis. The results are presented in Table II and graphically in FIGS. 1 through 3. This analysis indicates high significance among the three groups with respect to severe symptoms and all symptoms.

In the case of RKDVY [TP5, H-ARG-LYS-ASP-VAL-TYR-OH], the “differentiation of T lymphocytes (in words)” value (T lymphocytes) is given as “selectively stimulate the differentiation of T lymphocytes”, the “Average number of symptoms per week per subject, Cough Mild” value ([1]; Group 1 (TP5 sc)) is given as 0.14 and the “Average number of symptoms per week per subject, Cough Sev.” value ([1]; Group 1 (TP5 sc)) is given as 0.02. For the same substance, the “Average number of symptoms per week per subject, Itchy Eyes Mild” value ([1]; Group 1 (TP5 sc)) was 2.45, the “Average number of symptoms per week per subject, Itchy Eyes Sev.” value ([1]; Group 1 (TP5 sc)) was 0.18 and the “Average number of symptoms per week per subject, Red Eyes Mild” value ([1]; Group 1 (TP5 sc)) was 1.12. For the same substance, the “Average number of symptoms per week per subject, Red Eyes Sev.” value ([1]; Group 1 (TP5 sc)) was 0.12, the “Average number of symptoms per week per subject, Runny Nose Mild” value ([1]; Group 1 (TP5 sc)) was 3.51 and the “Average number of symptoms per week per subject, Runny Nose Sev.” value ([1]; Group 1 (TP5 sc)) was 1.86. For the same substance, the “Average number of symptoms per week per subject, Sneezing Mild” value ([1]; Group 1 (TP5 sc)) was 2.97, the “Average number of symptoms per week per subject, Sneezing Sev.” value ([1]; Group 1 (TP5 sc)) was 0.46 and the “Average # Weekly Symptoms, Severe” value ([1]; Group 1, TP5 50 mg s.c. 3x/week, p vs placebo .1382) was 2.64. For the same substance, the “Average # Weekly Symptoms, Total” value ([1]; Group 1, TP5 50 mg s.c. 3x/week, p vs placebo .1394) was 12.84, the “Average # Weekly Symptoms, Mild” value ([1]; Group 1, TP5 50 mg s.c. 3x/week, p vs placebo .3059) was 10.20 and the “hay fever symptoms compared with placebo group (in words)” value ([1]; Group 1, thymopentin 50 mg subcutaneously three times per week, listed as Thymopentin) was “the difference from placebo is not statistically significant; also recorded: decreasing the number of severe hay fever symptoms”. The “hay fever symptoms compared with placebo group (in words)” value ([1]; Group 1, thymopentin 50 mg subcutaneously three times per week, listed as thymopentin) was “experienced fewer symptoms than group 3; also recorded: effective regimens to palliate allergic symptoms”, the “Total Mild & Severe Symptoms Combined, average weekly number” value (shortened to “Total Mild & Severe Symptoms Combined”) ([1]; Group 1 TP5 s.c., week 3) was 5.78 and the “Total Mild Symptoms, average weekly number” value (“Total Mild Symptoms” for short) ([1]; Group 1 TP5 s.c., week 3) was 5.22. The “Total Severe Symptoms, average weekly number” value (from here on “Total Severe Symptoms”) ([1]; Group 1 TP5 s.c., week 3) was 0.56, the “Total Mild & Severe Symptoms Combined” value ([1]; Group 1 TP5 s.c., week 4) was 9.22 and the “Total Mild Symptoms” value ([1]; Group 1 TP5 s.c., week 4) was 8.11. The “Total Severe Symptoms” value ([1]; Group 1 TP5 s.c., week 4) was 1.11, the “Total Mild & Severe Symptoms Combined” value ([1]; Group 1 TP5 s.c., week 5) was 9.78 and the “Total Mild Symptoms” value ([1]; Group 1 TP5 s.c., week 5) was 9.00. The “Total Severe Symptoms” value ([1]; Group 1 TP5 s.c., week 5) was 0.78, the “Total Mild & Severe Symptoms Combined” value ([1]; Group 1 TP5 s.c., week 6) was 11.56 and the “Total Mild Symptoms” value ([1]; Group 1 TP5 s.c., week 6) was 10.11. The “Total Severe Symptoms” value ([1]; Group 1 TP5 s.c., week 6) was 1.44, the “Total Mild & Severe Symptoms Combined” value ([1]; Group 1 TP5 s.c., week 7) was 14.44 and the “Total Mild Symptoms” value ([1]; Group 1 TP5 s.c., week 7) was 13.11. The “Total Severe Symptoms” value ([1]; Group 1 TP5 s.c., week 7) was 1.33, the “Total Mild & Severe Symptoms Combined” value ([1]; Group 1 TP5 s.c., week 8) was 16.33 and the “Total Mild Symptoms” value ([1]; Group 1 TP5 s.c., week 8) was 14.44. The “Total Severe Symptoms” value ([1]; Group 1 TP5 s.c., week 8) was 1.89, the “Total Mild & Severe Symptoms Combined” value ([1]; Group 1 TP5 s.c., week 9) was 19.67 and the “Total Mild Symptoms” value ([1]; Group 1 TP5 s.c., week 9) was 18.56. The “Total Severe Symptoms” value ([1]; Group 1 TP5 s.c., week 9) was 1.11, the “Total Mild & Severe Symptoms Combined” value ([1]; Group 1 TP5 s.c., week 10) was 17.78 and the “Total Mild Symptoms” value ([1]; Group 1 TP5 s.c., week 10) was 15.22. For the same substance, the “Total Severe Symptoms” value ([1]; Group 1 TP5 s.c., week 10) was 2.56, the “Total Mild & Severe Symptoms Combined” value ([1]; Group 1 TP5 s.c., week 11) was 16.89 and the “Total Mild Symptoms” value ([1]; Group 1 TP5 s.c., week 11) was 13.11. For the same substance, the “Total Severe Symptoms” value ([1]; Group 1 TP5 s.c., week 11) was 3.78, the “Total Mild & Severe Symptoms Combined” value ([1]; Group 1 TP5 s.c., week 12) was 5.89 and the “Total Mild Symptoms” value ([1]; Group 1 TP5 s.c., week 12) was 5.67. The “Total Severe Symptoms” value ([1]; Group 1 TP5 s.c., week 12) was 0.22, the “Average number of symptoms per week per subject, Cough Mild” value ([1]; Group 2 (TP5 iv)) was 0.48 and the “Average number of symptoms per week per subject, Cough Sev.” value ([1]; Group 2 (TP5 iv)) was 0.03. For the same substance, the “Average number of symptoms per week per subject, Itchy Eyes Mild” value ([1]; Group 2 (TP5 iv)) was 0.84, the “Average number of symptoms per week per subject, Itchy Eyes Sev.” value ([1]; Group 2 (TP5 iv)) was 0.25 and the “Average number of symptoms per week per subject, Red Eyes Mild” value ([1]; Group 2 (TP5 iv)) was 0.75. For the same substance, the “Average number of symptoms per week per subject, Red Eyes Sev.” value ([1]; Group 2 (TP5 iv)) was 0.08, the “Average number of symptoms per week per subject, Runny Nose Mild” value ([1]; Group 2 (TP5 iv)) was 3.03 and the “Average number of symptoms per week per subject, Runny Nose Sev.” value ([1]; Group 2 (TP5 iv)) was 0.80. The “Average number of symptoms per week per subject, Sneezing Mild” value ([1]; Group 2 (TP5 iv)) was 2.33, the “Average number of symptoms per week per subject, Sneezing Sev.” value ([1]; Group 2 (TP5 iv)) was 0.61 and the “Average # Weekly Symptoms, Total” value ([1]; Group 2, TP5 100 mg i.v. once weekly, p vs placebo .0145) was 9.20. The “Average # Weekly Symptoms, Severe” value ([1]; Group 2, TP5 100 mg i.v. once weekly, p vs placebo .0232) was 1.77, the “Average # Weekly Symptoms, Mild” value ([1]; Group 2, TP5 100 mg i.v. once weekly, p vs placebo .0257) was 7.43 and the “hay fever symptoms compared with placebo group (in words)” value ([1]; Group 2, thymopentin 100 mg intravenously once per week, listed as Thymopentin) was “statistically significant difference from group 3; also recorded: decreasing the number of severe hay fever symptoms”. For the same substance, the “hay fever symptoms compared with placebo group (in words)” value ([1]; Group 2, thymopentin 100 mg intravenously once per week, listed as thymopentin) was “This difference was statistically significant for group 2; also recorded: effective regimens to palliate allergic symptoms”, the “Total Mild & Severe Symptoms Combined” value ([1]; Group 2 TP5 i.v., week 3) was 5.43 and the “Total Mild Symptoms” value ([1]; Group 2 TP5 i.v., week 3) was 4.43. For the same substance, the “Total Severe Symptoms” value ([1]; Group 2 TP5 i.v., week 3) was 1.0, the “Total Mild & Severe Symptoms Combined” value ([1]; Group 2 TP5 i.v., week 4) was 8.86 and the “Total Mild Symptoms” value ([1]; Group 2 TP5 i.v., week 4) was 8.43. The “Total Severe Symptoms” value ([1]; Group 2 TP5 i.v., week 4) was 0.43, the “Total Mild & Severe Symptoms Combined” value ([1]; Group 2 TP5 i.v., week 5) was 7.00 and the “Total Mild Symptoms” value ([1]; Group 2 TP5 i.v., week 5) was 6.71. The “Total Severe Symptoms” value ([1]; Group 2 TP5 i.v., week 5) was 0.29, the “Total Mild & Severe Symptoms Combined” value ([1]; Group 2 TP5 i.v., week 6) was 10.86 and the “Total Mild Symptoms” value ([1]; Group 2 TP5 i.v., week 6) was 9.29. The “Total Severe Symptoms” value ([1]; Group 2 TP5 i.v., week 6) was 1.57, the “Total Mild & Severe Symptoms Combined” value ([1]; Group 2 TP5 i.v., week 7) was 9.00 and the “Total Mild Symptoms” value ([1]; Group 2 TP5 i.v., week 7) was 8.00. For the same substance, the “Total Severe Symptoms” value ([1]; Group 2 TP5 i.v., week 7) was 1.00, the “Total Mild & Severe Symptoms Combined” value ([1]; Group 2 TP5 i.v., week 8) was 11.00 and the “Total Mild Symptoms” value ([1]; Group 2 TP5 i.v., week 8) was 8.57. The “Total Severe Symptoms” value ([1]; Group 2 TP5 i.v., week 8) was 2.43, the “Total Mild & Severe Symptoms Combined” value ([1]; Group 2 TP5 i.v., week 9) was 8.14 and the “Total Mild Symptoms” value ([1]; Group 2 TP5 i.v., week 9) was 7.71. For the same substance, the “Total Severe Symptoms” value ([1]; Group 2 TP5 i.v., week 9) was 0.43, the “Total Mild & Severe Symptoms Combined” value ([1]; Group 2 TP5 i.v., week 10) was 5.14 and the “Total Mild Symptoms” value ([1]; Group 2 TP5 i.v., week 10) was 4.71. The “Total Severe Symptoms” value ([1]; Group 2 TP5 i.v., week 10) was 0.43, the “Total Mild & Severe Symptoms Combined” value ([1]; Group 2 TP5 i.v., week 11) was 5.43 and the “Total Mild Symptoms” value ([1]; Group 2 TP5 i.v., week 11) was 5.14. The “Total Severe Symptoms” value ([1]; Group 2 TP5 i.v., week 11) was 0.29, the “Total Mild & Severe Symptoms Combined” value ([1]; Group 2 TP5 i.v., week 12) was 1.71 and the “Total Mild Symptoms” value ([1]; Group 2 TP5 i.v., week 12) was 1.57. The “Total Severe Symptoms” value ([1]; Group 2 TP5 i.v., week 12) was 0.14, the “alleviating the symptoms of allergic rhinitis compared to placebo (in words)” value ([1]; double-blind study, route not specified) was “statistically significant compared to placebo” and the “safety (in words)” value ([1]; general statement) was “very safe drug”.
